For this experiment, the target named is T1, β-glucuronidase (Sigma) (EC 3.2.1.31) from E. coli (Escherichia coli, UniProt P05804).
T1 construct: purchased Sigma G-7396
Description: biochemical. The settings on record: for remaining activity at 0.001 %: test concentration 0.001 %. On the procedure:
Investigation of the inhibitory action of the β-glucuronidase inhibitors (in vitro)
Since the skin-relevant β-glucuronidase was not available, a commercially available β-glucuronidase (Sigma) (EC 3.2.1.31) from E. coli served as the model enzyme for testing the inhibitory action of the inhibitors used according to the invention. The tests were carried out with the β-glucuronidase enzyme assay product no. G-7396 from Sigma in accordance with the instructions in the Sigma Quality Control Test Procedure datasheet.
For the evaluation, the phenolphthalein formed from the substrate phenolphthalein glucuronide by β-glucuronidase was determined spectrophotometrically (λ=540 nm).
The reaction solutions of 300 μl, which were temperature-controlled at a reaction temperature of 37° C., comprised 30 mM potassium phosphate buffer with 0.04% of albumin (pH 6.8), 0.5 mM phenolphthalein glucuronide (substrate) and a starting concentration of 40 U/ml (=12 U) of β-glucuronidase. The unit U of the enzyme activity was defined such that 1 U of β-glucuronidase hydrolyses 1.0 μmol of phenolphthalein glucuronide per minute at pH 6.8 and 37° C.
The reaction was started by addition of the enzyme and incubation was carried out for 30 min at 37° C. The reaction was then stopped with 3.5 times the volume of a 200 mM glycine solution of pH 10.4. In the photometric end point determination, the amount of phenolphthalein liberated was determined at the wavelength of λ=540 nm and at 37° C.
In batches with inhibitor, 0.2 ml of the appropriately concentrated reagents and 0.1 ml of the inhibitor, dissolved in water, were mixed. In each case a concentration series of the inhibitor was tested here. The absorption (A) here is a measure of the activity of the enzyme (ΔA). The activity of the enzyme in the absence of an inhibitor (ΔA1) was set at 100% as the reference. Under analogous conditions, the activities were determined in the presence of an inhibitor (ΔA2). The inhibitory action of the inhibitor was shown as the residual activity of the enzyme activity, calculated in accordance with the equation 100%−(ΔA2)/(ΔA1)%.

Where [1] appears, read: 0.5 h, test concentration 0.01 %, 30 min, 37° C., pH 6.8, read-out: Residual activity.
The mark [2] stands for this setting: 0.5 h, test concentration 0.10 %, 30 min, 37° C., pH 6.8, read-out: Residual activity.
[3] abbreviates: 0.5 h, test concentration 1.00 %, 30 min, 37° C., pH 6.8, read-out: Residual activity.
[4] abbreviates: test concentration 0.01 %, 30 min, 37° C., pH 6.8.
Setting [5] is: test concentration 0.10 %, 30 min, 37° C., pH 6.8.
Setting [6] is: 0.5 h, 30 min, 37° C., pH 6.8, read-out: Residual activity.
Setting [7] is: test concentration 0.50 %, 30 min, 37° C., pH 6.8.
Where [8] appears, read: test concentration 1.00 %, 30 min, 37° C., pH 6.8.
[9] abbreviates: 0.5 h, pH 6.8, read-out: Residual activity.
[10] abbreviates: test concentration 2.00 %, 30 min, 37° C., pH 6.8.
[11] abbreviates: 0.5 h, concentration in the test 0.01 % (head of grid column 4, first sub-table), 30 min, 37° C., pH 6.8, read-out: Residual activity.
The mark [12] stands for this setting: test concentration 0.08 %, 30 min, 37° C., pH 6.8.

Structures can show the parent of a compound that is named as a salt. Where two headings read alike, the source gives them in different places.

T1 sequence (P05804 whole entry): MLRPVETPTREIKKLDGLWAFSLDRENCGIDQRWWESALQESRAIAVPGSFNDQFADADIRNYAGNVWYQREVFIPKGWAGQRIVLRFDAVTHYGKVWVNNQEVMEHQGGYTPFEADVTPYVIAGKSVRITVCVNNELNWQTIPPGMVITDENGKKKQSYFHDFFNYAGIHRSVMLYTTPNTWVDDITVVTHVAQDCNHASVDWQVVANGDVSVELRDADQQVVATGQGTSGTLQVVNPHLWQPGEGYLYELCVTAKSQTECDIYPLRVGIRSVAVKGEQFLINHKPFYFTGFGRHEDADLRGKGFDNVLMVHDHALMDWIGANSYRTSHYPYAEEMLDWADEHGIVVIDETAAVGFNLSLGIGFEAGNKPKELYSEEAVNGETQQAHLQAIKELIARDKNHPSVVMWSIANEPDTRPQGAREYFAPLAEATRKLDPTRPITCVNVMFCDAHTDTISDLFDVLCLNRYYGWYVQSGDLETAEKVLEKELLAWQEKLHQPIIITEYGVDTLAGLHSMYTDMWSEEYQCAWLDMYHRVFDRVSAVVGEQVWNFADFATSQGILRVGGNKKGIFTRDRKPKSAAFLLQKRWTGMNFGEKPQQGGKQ

`O=P(O)(O)O[C@H]1[C@H](OP(=O)(O)O)[C@@H](OP(=O)(O)O)[C@H](OP(=O)(O)O)[C@@H](OP(=O)(O)O)[C@H]1OP(=O)(O)O` [Phytic acid, myo-inositol-hexaphosphoric acid]: the remaining activity at 0.01 % under setting [1] worked out at 90%. Besides, under “0.5 h, test concentration 0.05 %, 30 min, 37° C., pH 6.8, read-out: Residual activity”, the remaining activity at 0.05 % came out at 86%. For the same compound, the remaining activity at 0.1 % under setting [2] worked out at 71%. Also, the remaining activity at 0.38 % (0.5 h, test concentration 0.38 %, 30 min, 37° C., pH 6.8, read-out: Residual activity) amounted to 68%. In addition, the remaining activity at 1 % under setting [3] worked out at 16%.

With `O=C([O-])C(O)C(O)C(O)C(O)C(O)CO.O=C([O-])C(O)C(O)C(O)C(O)C(O)CO.[Mg+2]` (stereo not shown) [Magnesium glucoheptonate, magnesium glucoheptonate], the Residual activity was found to be 55% under setting [4] and 50% under setting [5].

Take `CC(C)c1cccc(=O)c(O)c1` [Hinokitiol (DMSO), 2-hydroxy-4-isopropyl-2,4,6-cycloheptatrien-1-one]: the remaining activity at 0.001 % under setting [6] came to 112%. For the same compound, the remaining activity at 0.01 % under setting [1] came out at 156%. Further, the remaining activity at 0.1 % under setting [2] was 30%. Besides, the remaining activity at 1 % under setting [3] amounted to 2%.

On to `CC(=O)CCc1ccc(O[C@@H]2O[C@H](CO)[C@@H](O)[C@H](O)[C@H]2O)cc1` [Raspberry ketone glucoside, 4-(γ-ketobutyl)phenyl β-D-glucoside], for which the Residual activity reads like this: under setting [7], 125%; under setting [8], 49%.

Take `O=C([O-])CC(O)(CC(=O)[O-])C(=O)[O-].[K+].[K+].[K+]` [Tripotassium citrate, tripotassium citrate]: the Residual activity was determined as 97% under setting [4], 86% under setting [5] and 47% under setting [8].

In the case of `C[C@@H]1O[C@@H](O[C@H]2[C@H](Oc3cc(O)c4c(c3)O[C@H](c3ccc(O)cc3)CC4=O)O[C@H](CO)[C@@H](O)[C@@H]2O)[C@H](O)[C@H](O)[C@H]1O` [Naringin, naringenin 7-rhamnoglucoside], under setting [6], the remaining activity at 0.001 % stood at 103%. Moreover, the remaining activity at 0.01 % under setting [1] stood at 94%. Further, the remaining activity at 0.1 % under setting [2] turned out to be 47%.

Regarding `NCC(=O)O` [Glycine, glycine], under setting [9], the remaining activity at 0.01 % stood at 95%, the remaining activity at 0.1 % is 91%, the remaining activity at 0.5 % amounted to 70% and the remaining activity at 1 % amounted to 52%. The remaining activity at 2 % under setting [9] worked out at 32%.

In the case of `O=C([O-])CN(CCN(CC(=O)[O-])CC(=O)[O-])CC(=O)[O-].[Na+].[Na+].[Na+].[Na+]` [Trilon B, EDTA-4 Na, reference compound], the Residual activity by setting is: under setting [4], 108%; under setting [5], 86%; under setting [7], 57%; under setting [8], 51%; under setting [10], 43%.

With `C=C(C)C1CCC(C)CC1O` (stereo not shown) [Coolact P, 5-methyl-2-(1-methylvinyl)cyclohexan-1-ol], the remaining activity at 0.0005 % (0.5 h, concentration in the test 0.0005 % (head of grid column 3, first sub-table), 30 min, 37° C., pH 6.8, read-out: Residual activity) was 184%. In addition, the remaining activity at 0.01 % under setting [11] is 38%.

Consider `O=C1CC[C@@H](C(=O)[O-])N1.O=C1CC[C@@H](C(=O)[O-])N1.[Zn+2]` [Zincidone], for which the Residual activity under setting [4] is on record as 79%, the Residual activity under setting [5] is 8% and the Residual activity under setting [8] is recorded as 3%.

Turning to `C=CCc1ccc(O[C@@H]2O[C@H](CO)[C@@H](O)[C@H](O)[C@H]2O)c(OC)c1` [Eugenyl Glucoside, 2-methoxy-4-(2-propenyl)phenyl β-D-glucoside], the Residual activity under setting [5] amounted to 53% and the Residual activity under setting [7] is given as 12%.

Consider `O=C([O-])CN(CC(=O)[O-])CC(=O)[O-].[Na+].[Na+].[Na+]` [Trilon A, Nitrilotriacetic acid 3 Na, reference compound], for which the Residual activity is 100% under setting [4]; 90% under setting [5]; 71% under setting [7]; 59% under setting [8]; 52% under setting [10].

Turning to zinc gluconate, the Residual activity turned out to be 88% under setting [4]; 54% under setting [5]; 3% (test concentration 0.25 %, 30 min, 37° C., pH 6.8); 1% under setting [8].

For the compound `OCCc1ccccc1` [Phenylethyl alcohol, 2-phenylethyl alcohol], the remaining activity at 0.01 % under setting [1] came to 121%. Moreover, the remaining activity at 0.1 % under setting [2] was 227%. The remaining activity at 1 % under setting [3] is 49%.

Consider `CC(C(=O)[O-])N(CC(=O)[O-])CC(=O)[O-].[Na+].[Na+].[Na+]` (stereo not shown) [Trilon M, Methylglycinediacetic acid trisodium salt], for which the Residual activity worked out at 99% under setting [4], 91% under setting [5] and 55% under setting [8].

Regarding `CC(O)C(=O)[O-].CC(O)C(=O)[O-].[Zn+2]` (stereo not shown) [Zinc lactate, zinc lactate], the Residual activity stood at 77% (test concentration 0.005 %, 30 min, 37° C., pH 6.8); 55% (test concentration 0.05 %, 30 min, 37° C., pH 6.8); 30% under setting [12]; 3% under setting [7].

As to `O.O.O.O.O.[Cl][Cu][Cl]` [CuCl2 × 5H2O, CuCl2·5 H2O], the Residual activity came out at 105% (test concentration 0.000005 %, 30 min, 37° C., pH 6.8); 39% (test concentration 0.00005 %, 30 min, 37° C., pH 6.8); 7% (test concentration 0.00025 %, 30 min, 37° C., pH 6.8).

As to Copper gluconate [Givobio GCU], the Residual activity under setting [4] stood at 81% and the Residual activity under setting [5] amounted to 50%.

`CC(O)(P(=O)(O)O)P(=O)(O)O` [Dequest 2016D, 1-Hydroxyethane-1,1-diphosphonic acid tetrasodium salt]: the remaining activity at 8e-05 % (0.5 h, concentration in the test 0.00008 % (head of grid column 1, first sub-table), 30 min, 37° C., pH 6.8, read-out: Residual activity) is 99%. Also, for the setting “0.5 h, concentration in the test 0.0008 % (head of grid column 2, first sub-table), 30 min, 37° C., pH 6.8, read-out: Residual activity”, the remaining activity at 0.0008 % was 95%. Further, the remaining activity at 0.01 % under setting [11] was 52%.

On to `O=C(O)C(O)c1ccc(O)cc1` (stereo not shown) [Dermosoft HMA, p-Hydroxymandelic acid sodium salt], for which, under setting [1], the remaining activity at 0.01 % turned out to be 110%. Also, the remaining activity at 0.1 % under setting [2] is 99%. Also, under setting [3], the remaining activity at 1 % came to 56%.

For the compound `O=C(/C=C/c1ccc(O)c(O)c1)O[C@H](Cc1ccc(O)c(O)c1)C(=O)O` [Rosemary acid, rosemary acid], the Residual activity (test concentration 0.0008 %, 30 min, 37° C., pH 6.8) is 48%; the Residual activity (test concentration 0.008 %, 30 min, 37° C., pH 6.8) worked out at 15%; the Residual activity under setting [12] is 19%; the Residual activity (test concentration 8 · 10^−5 %, 30 min, 37° C., pH 6.8) came to 86%.

As to `CC(O)C(=O)[O-].[K+]` (stereo not shown) [Purasal P Hipure 60, Potassium lactate], the Residual activity is, setting by setting: under setting [4], 96%; under setting [5], 88%; under setting [8], 52%.

The record behind these values is patent US7294330B2, “β-glucuronidase inhibitors for use in deodorants and antiperspirants” (priority 2001, dated 2007).
